Experimental data reported in US12390451B2, “Small molecule inhibitor of the JAK family of kinases” (Janssen Pharmaceutica NV, priority 2021, dated 2025).
Like-named read-outs stand apart in the source and are kept apart here.

Columns and labels:
JAK1/3 = molecular target: T1, JAK1/3 (Mus musculus, UniProt P52332+Q62137); test: IL-21-induced pSTAT-3 in murine whole blood; type: cell-based
T1 construct: endogenous in cells; host or cells: murine whole blood
Method: Mouse whole blood IC50 values were also generated to build an understanding of the relationship between systemic exposures and target engagement in murine models. In murine whole blood, the in vitro activity of compound of Formula I in the inhibition of IFNα-(JAK1/Tyk2), IL-21-(JAK1/3), and IL-12-(JAK2/Tyk2) induced pSTAT responses in murine whole blood was measured. […] No reliable IC50 could be reported for inhibition of IL-12 induced pSTAT-4 in murine whole blood.

JAK1/Tyk2 = molecular target: T2, JAK1/Tyk2 (Homo sapiens, UniProt P23458+P29597); test: IFNα-induced pSTAT-3 in human whole blood; type: cell-based; conditions: mean
T2 construct: endogenous in cells; host or cells: human whole blood
Method: Compound of Formula I presents low levels of systemic exposure after oral administration. To understand the relationship between systemic exposure and target engagement in human studies, the inhibition of cytokine-induced pSTAT-3 in human whole blood was measured with such compound. In human whole blood, compound of Formula I in a concentration-dependent manner inhibited the JAK1, JAK2, JAK3, and Tyk2 homo- and heterodimers downstream of IFNα (JAK1/Tyk2), thrombopoietin (TPO) (JAK2/JAK2), and IL-21 (JAK1/JAK3) signaling.

[1] = Tissue distribution in rats after oral administration; type: in vivo, male Sprague-Dawley rats; conditions: PO 25 mg/kg; for concentration at 0.5 h / concentration at 1 h / concentration at 2 h / concentration at 3 h / concentration at 5 h / concentration at 7 h / concentration at 24 h: male, Sprague-Dawley, rat
Method: Preliminary tissue distribution studies were conducted in male Sprague-Dawley rats (N=3/time point) at 0.5, 1, 2, 3, 5, 7, and 24 hours following oral administration of compound of Formula I at a dose of 25 mg/kg. The following tissues were harvested for compound concentration analysis: liver, kidney, brain, muscle, epididymis fat, duodenum, jejunum, ileum, colon (both lumen content and tissue), and plasma. The results of this study indicated low systemic exposure and high local concentrations (intestinal tract).

[2] = 1 h, BLOQ 0.5 ng/mL of tissue homogenate
[3] = 2 h, BLOQ 0.5 ng/mL of tissue homogenate
[4] = 3 h, BLOQ 0.5 ng/mL of tissue homogenate
[5] = 5 h, BLOQ 0.5 ng/mL of tissue homogenate
[6] = 24 h, BLOQ 0.5 ng/mL of tissue homogenate

T1 sequence (P52332 whole entry): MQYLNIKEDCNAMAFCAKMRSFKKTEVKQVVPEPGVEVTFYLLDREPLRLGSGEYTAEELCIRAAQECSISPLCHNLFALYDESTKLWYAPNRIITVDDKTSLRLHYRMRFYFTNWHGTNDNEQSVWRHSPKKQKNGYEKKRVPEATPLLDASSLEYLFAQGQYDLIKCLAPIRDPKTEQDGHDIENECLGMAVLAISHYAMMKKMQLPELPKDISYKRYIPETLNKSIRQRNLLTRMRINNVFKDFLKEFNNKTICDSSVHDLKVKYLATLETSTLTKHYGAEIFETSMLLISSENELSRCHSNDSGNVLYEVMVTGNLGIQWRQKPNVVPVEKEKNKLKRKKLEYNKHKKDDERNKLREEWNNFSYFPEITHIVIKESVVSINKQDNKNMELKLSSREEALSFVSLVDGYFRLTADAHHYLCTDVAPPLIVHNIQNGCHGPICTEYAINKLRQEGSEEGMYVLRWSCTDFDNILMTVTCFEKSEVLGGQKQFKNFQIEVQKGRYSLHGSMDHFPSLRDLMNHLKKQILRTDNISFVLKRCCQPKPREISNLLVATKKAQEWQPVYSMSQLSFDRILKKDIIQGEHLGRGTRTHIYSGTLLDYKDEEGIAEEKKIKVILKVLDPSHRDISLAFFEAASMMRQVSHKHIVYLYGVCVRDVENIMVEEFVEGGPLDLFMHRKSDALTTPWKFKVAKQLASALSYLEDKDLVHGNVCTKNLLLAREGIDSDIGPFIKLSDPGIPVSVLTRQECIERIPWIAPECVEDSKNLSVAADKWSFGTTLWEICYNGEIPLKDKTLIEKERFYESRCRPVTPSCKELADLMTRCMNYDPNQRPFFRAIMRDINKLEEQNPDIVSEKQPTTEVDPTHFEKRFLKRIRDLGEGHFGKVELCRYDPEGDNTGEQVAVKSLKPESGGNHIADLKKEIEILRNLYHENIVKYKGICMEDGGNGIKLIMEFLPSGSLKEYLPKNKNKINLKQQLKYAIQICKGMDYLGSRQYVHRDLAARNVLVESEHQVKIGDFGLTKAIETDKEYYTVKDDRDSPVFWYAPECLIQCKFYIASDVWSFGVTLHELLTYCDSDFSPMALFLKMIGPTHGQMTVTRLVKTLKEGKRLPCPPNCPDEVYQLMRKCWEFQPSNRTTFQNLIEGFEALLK
T1 sequence (Q62137 whole entry): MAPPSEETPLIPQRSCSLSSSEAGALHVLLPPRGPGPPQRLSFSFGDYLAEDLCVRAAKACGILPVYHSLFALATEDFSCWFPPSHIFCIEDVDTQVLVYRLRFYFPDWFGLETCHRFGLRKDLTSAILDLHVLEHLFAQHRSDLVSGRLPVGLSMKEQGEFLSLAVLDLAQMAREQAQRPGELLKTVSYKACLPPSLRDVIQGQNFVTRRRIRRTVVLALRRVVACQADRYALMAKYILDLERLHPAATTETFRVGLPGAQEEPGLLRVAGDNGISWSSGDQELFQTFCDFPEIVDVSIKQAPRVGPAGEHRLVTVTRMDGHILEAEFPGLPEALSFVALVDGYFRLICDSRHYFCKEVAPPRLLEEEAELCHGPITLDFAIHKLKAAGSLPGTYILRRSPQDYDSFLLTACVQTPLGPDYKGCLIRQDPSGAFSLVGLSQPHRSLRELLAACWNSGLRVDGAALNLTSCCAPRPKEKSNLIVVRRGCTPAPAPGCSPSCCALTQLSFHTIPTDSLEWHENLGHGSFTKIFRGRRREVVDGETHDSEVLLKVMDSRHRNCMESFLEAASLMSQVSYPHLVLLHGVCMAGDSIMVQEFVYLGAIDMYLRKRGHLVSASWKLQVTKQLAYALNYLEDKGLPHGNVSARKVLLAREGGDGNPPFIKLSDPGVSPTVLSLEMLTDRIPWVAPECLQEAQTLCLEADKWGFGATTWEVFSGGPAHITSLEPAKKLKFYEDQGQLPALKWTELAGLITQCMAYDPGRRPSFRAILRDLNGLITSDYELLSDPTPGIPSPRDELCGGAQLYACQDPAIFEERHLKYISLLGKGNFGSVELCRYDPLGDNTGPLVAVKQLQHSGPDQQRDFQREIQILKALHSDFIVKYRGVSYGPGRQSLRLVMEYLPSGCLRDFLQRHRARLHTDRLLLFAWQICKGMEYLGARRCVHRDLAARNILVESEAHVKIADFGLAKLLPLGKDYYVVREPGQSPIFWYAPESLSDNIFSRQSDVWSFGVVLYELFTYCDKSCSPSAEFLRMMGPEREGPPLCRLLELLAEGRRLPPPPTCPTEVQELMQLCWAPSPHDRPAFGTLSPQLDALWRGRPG
T1 sequence (Q9JHX3 20-529 partner): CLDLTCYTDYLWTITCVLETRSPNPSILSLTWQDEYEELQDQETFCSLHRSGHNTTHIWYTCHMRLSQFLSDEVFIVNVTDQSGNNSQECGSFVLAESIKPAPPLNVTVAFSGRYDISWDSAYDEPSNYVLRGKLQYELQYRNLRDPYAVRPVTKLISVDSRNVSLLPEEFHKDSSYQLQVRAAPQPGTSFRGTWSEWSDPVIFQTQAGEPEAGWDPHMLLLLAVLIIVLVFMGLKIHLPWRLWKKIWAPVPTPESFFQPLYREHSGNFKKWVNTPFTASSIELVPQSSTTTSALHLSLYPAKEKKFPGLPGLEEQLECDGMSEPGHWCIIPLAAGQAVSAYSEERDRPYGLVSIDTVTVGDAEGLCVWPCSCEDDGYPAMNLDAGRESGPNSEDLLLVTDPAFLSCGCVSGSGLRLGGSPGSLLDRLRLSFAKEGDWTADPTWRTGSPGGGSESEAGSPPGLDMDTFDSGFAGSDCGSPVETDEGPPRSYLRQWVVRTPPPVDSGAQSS
T1 sequence (P34902 23-369 partner): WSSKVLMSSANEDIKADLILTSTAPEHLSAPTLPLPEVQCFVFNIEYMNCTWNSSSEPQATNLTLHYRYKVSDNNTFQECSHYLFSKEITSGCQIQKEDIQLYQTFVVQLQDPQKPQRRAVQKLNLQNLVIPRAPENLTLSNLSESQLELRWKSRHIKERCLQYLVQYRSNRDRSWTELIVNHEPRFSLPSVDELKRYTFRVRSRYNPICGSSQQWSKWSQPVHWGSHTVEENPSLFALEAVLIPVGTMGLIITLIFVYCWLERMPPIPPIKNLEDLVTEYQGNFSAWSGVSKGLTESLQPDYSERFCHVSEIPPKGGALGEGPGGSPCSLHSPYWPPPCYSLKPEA

## CC(C)(O)CNC(=O)Cc1nc2cnc3[nH]ccc3c2n1[C@H]1CC[C@H](CC#N)CC1 [Compound of Formula I, 2-(1-((1r,4r)-4-(Cyanomethyl)cyclohexyl)-1,6-dihydroimidazo[4,5-d]pyrrolo[2,3-b]pyridin-2-yl)-N-(2-hydroxy-2-methylpropyl)acetamide]
JAK1/3
  IC50: 415 nM
JAK1/Tyk2
  IC50: 105 nM
[1]; [2]
  Brain concentration: BLOQ^(a)
  Fat concentration: BLOQ^(a)
[1]; 1 h, SD NA
  Kidney concentration: 42.2 ng/g
  Plasma concentration: 5.8 ng/mL
[1]; [3]
  Brain concentration: BLOQ^(a)
  Fat concentration: BLOQ^(a)
  Muscle concentration: BLOQ^(a)
[1]; [4]
  Brain concentration: BLOQ^(a)
  Muscle concentration: BLOQ^(a)
[1]; 3 h, average, N = 3
  Ileum Content concentration: 1,402,241 ng/mL
[1]; [5]
  Brain concentration: BLOQ^(a)
  Fat concentration: BLOQ^(a)
  Muscle concentration: BLOQ^(a)
[1]; 7 h, BLOQ 0.5 ng/mL of tissue homogenate
  Brain concentration: BLOQ^(a)
[1]; 24 h, BLOQ 0.5 ng/mL
  Plasma concentration: BLOQ^(a)
[1]; [6]
  Brain concentration: BLOQ^(a)
  Fat concentration: BLOQ^(a)
  Kidney concentration: BLOQ^(a)
  Muscle concentration: BLOQ^(a)
[1]; brain, average ±SD, read-out: Brain concentration
  concentration at 0.5 h: 3.5 ± 3.1 ng/g
[1]; colon lumen content, average, N = 3, read-out: Colon Content concentration
  concentration at 0.5 h: 167 ng/mL
[1]; colon lumen content, 1 h, average, N = 3, read-out: Colon Content concentration
  concentration at 1 h: 135 ng/mL
[1]; colon lumen content, 2 h, average, N = 3, read-out: Colon Content concentration
  concentration at 2 h: 19100 ng/mL
[1]; colon lumen content, 3 h, average, N = 3, read-out: Colon Content concentration
  concentration at 3 h: 304000 ng/mL
[1]; colon lumen content, 5 h, average, N = 3, read-out: Colon Content concentration
  concentration at 5 h: 830000 ng/mL
[1]; colon lumen content, 7 h, average, N = 3, read-out: Colon Content concentration
  concentration at 7 h: 834000 ng/mL
[1]; colon lumen content, 24 h, average, N = 3, read-out: Colon Content concentration
  concentration at 24 h: 7590 ng/mL
[1]; colon tissue, average, N = 3, read-out: Colon Tissue concentration
  concentration at 0.5 h: 946 ng/g
[1]; colon tissue, 1 h, average, N = 3, read-out: Colon Tissue concentration
  concentration at 1 h: 383 ng/g
[1]; colon tissue, 2 h, average, N = 3, read-out: Colon Tissue concentration
  concentration at 2 h: 2190 ng/g
[1]; colon tissue, 3 h, average, N = 3, read-out: Colon Tissue concentration
  concentration at 3 h: 12400 ng/g
[1]; colon tissue, 5 h, average, N = 3, read-out: Colon Tissue concentration
  concentration at 5 h: 33500 ng/g
[1]; colon tissue, 7 h, average, N = 3, read-out: Colon Tissue concentration
  concentration at 7 h: 36700 ng/g
[1]; colon tissue, 24 h, average, N = 3, read-out: Colon Tissue concentration
  concentration at 24 h: 353 ng/g
[1]; duodenum lumen content, average, N = 3, read-out: Duod. Content concentration
  concentration at 0.5 h: 329000 ng/mL
[1]; duodenum lumen content, 1 h, average, N = 3, read-out: Duod. Content concentration
  concentration at 1 h: 45500 ng/mL
[1]; duodenum lumen content, 2 h, average, N = 3, read-out: Duod. Content concentration
  concentration at 2 h: 20200 ng/mL
[1]; duodenum lumen content, 3 h, average, N = 3, read-out: Duod. Content concentration
  concentration at 3 h: 15800 ng/mL
[1]; duodenum lumen content, 5 h, average, N = 3, read-out: Duod. Content concentration
  concentration at 5 h: 4470 ng/mL
[1]; duodenum lumen content, 7 h, average, N = 3, read-out: Duod. Content concentration
  concentration at 7 h: 2630 ng/mL
[1]; duodenum lumen content, 24 h, average, N = 3, read-out: Duod. Content concentration
  concentration at 24 h: 60 ng/mL
[1]; duodenum tissue, average, N = 3, read-out: Duod. Tissue concentration
  concentration at 0.5 h: 35200 ng/g
[1]; duodenum tissue, 1 h, average, N = 3, read-out: Duod. Tissue concentration
  concentration at 1 h: 16700 ng/g
[1]; duodenum tissue, 2 h, average, N = 3, read-out: Duod. Tissue concentration
  concentration at 2 h: 3170 ng/g
[1]; duodenum tissue, 3 h, average, N = 3, read-out: Duod. Tissue concentration
  concentration at 3 h: 3840 ng/g
[1]; duodenum tissue, 5 h, average, N = 3, read-out: Duod. Tissue concentration
  concentration at 5 h: 1100 ng/g
[1]; duodenum tissue, 7 h, average, N = 3, read-out: Duod. Tissue concentration
  concentration at 7 h: 366 ng/g
[1]; duodenum tissue, 24 h, average, N = 3, read-out: Duod. Tissue concentration
  concentration at 24 h: 17 ng/g
[1]; ileum lumen content, average, N = 3, read-out: Ileum Content concentration
  concentration at 0.5 h: 644 ng/mL
[1]; ileum lumen content, 1 h, average, N = 3, read-out: Ileum Content concentration
  concentration at 1 h: 496 ng/mL
[1]; ileum lumen content, 2 h, average, N = 3, read-out: Ileum Content concentration
  concentration at 2 h: 725000 ng/mL
[1]; ileum lumen content, 5 h, average, N = 3, read-out: Ileum Content concentration
  concentration at 5 h: 597000 ng/mL
[1]; ileum lumen content, 7 h, average, N = 3, read-out: Ileum Content concentration
  concentration at 7 h: 133000 ng/mL
[1]; ileum lumen content, 24 h, average, N = 3, read-out: Ileum Content concentration
  concentration at 24 h: 893 ng/mL
[1]; ileum tissue, average, N = 3, read-out: Ileum Tissue concentration
  concentration at 0.5 h: 1340 ng/g
[1]; ileum tissue, 1 h, average, N = 3, read-out: Ileum Tissue concentration
  concentration at 1 h: 252 ng/g
[1]; ileum tissue, 2 h, average, N = 3, read-out: Ileum Tissue concentration
  concentration at 2 h: 8950 ng/g
[1]; ileum tissue, 3 h, average, N = 3, read-out: Ileum Tissue concentration
  concentration at 3 h: 50800 ng/g
[1]; ileum tissue, 5 h, average, N = 3, read-out: Ileum Tissue concentration
  concentration at 5 h: 18000 ng/g
[1]; ileum tissue, 7 h, average, N = 3, read-out: Ileum Tissue concentration
  concentration at 7 h: 6490 ng/g
[1]; jejunum lumen content, average, N = 3, read-out: Jejunum Content concentration
  concentration at 0.5 h: 533000 ng/mL
[1]; jejunum lumen content, 1 h, average, N = 3, read-out: Jejunum Content concentration
  concentration at 1 h: 249000 ng/mL
[1]; jejunum lumen content, 2 h, average, N = 3, read-out: Jejunum Content concentration
  concentration at 2 h: 90700 ng/mL
[1]; jejunum lumen content, 3 h, average, N = 3, read-out: Jejunum Content concentration
  concentration at 3 h: 48000 ng/mL
[1]; jejunum lumen content, 5 h, average, N = 3, read-out: Jejunum Content concentration
  concentration at 5 h: 26300 ng/mL
[1]; jejunum lumen content, 7 h, average, N = 3, read-out: Jejunum Content concentration
  concentration at 7 h: 10300 ng/mL
[1]; jejunum lumen content, 24 h, average, N = 3, read-out: Jejunum Content concentration
  concentration at 24 h: 228 ng/mL
[1]; jejunum tissue, average, N = 3, read-out: Jejunum Tissue concentration
  concentration at 0.5 h: 47200 ng/g
[1]; jejunum tissue, 1 h, average, N = 3, read-out: Jejunum Tissue concentration
  concentration at 1 h: 23500 ng/g
[1]; jejunum tissue, 2 h, average, N = 3, read-out: Jejunum Tissue concentration
  concentration at 2 h: 8230 ng/g
[1]; jejunum tissue, 3 h, average, N = 3, read-out: Jejunum Tissue concentration
  concentration at 3 h: 3980 ng/g
[1]; jejunum tissue, 5 h, average, N = 3, read-out: Jejunum Tissue concentration
  concentration at 5 h: 1810 ng/g
[1]; jejunum tissue, 7 h, average, N = 3, read-out: Jejunum Tissue concentration
  concentration at 7 h: 788 ng/g
[1]; jejunum tissue, 24 h, average, N = 3, read-out: Jejunum Tissue concentration
  concentration at 24 h: 27 ng/g
[1]; kidney, average ±SD, read-out: Kidney concentration
  concentration at 0.5 h: 57.9 ± 26.2 ng/g
[1]; kidney, 2 h, average ±SD, read-out: Kidney concentration
  concentration at 2 h: 24.3 ± 6.6 ng/g
[1]; kidney, 3 h, average ±SD, read-out: Kidney concentration
  concentration at 3 h: 30 ± 9.4 ng/g
[1]; kidney, 5 h, average ±SD, read-out: Kidney concentration
  concentration at 5 h: 12.9 ± 3.6 ng/g
[1]; kidney, 7 h, average ±SD, read-out: Kidney concentration
  concentration at 7 h: 19.9 ± 7.8 ng/g
[1]; liver, average ±SD, read-out: Liver concentration
  concentration at 0.5 h: 158 ± 104 ng/g
[1]; liver, 1 h, SD NA, read-out: Liver concentration
  concentration at 1 h: 70.4 ng/g
[1]; liver, 2 h, average ±SD, read-out: Liver concentration
  concentration at 2 h: 49.9 ± 17.5 ng/g
[1]; liver, 3 h, average ±SD, read-out: Liver concentration
  concentration at 3 h: 29.6 ± 14.5 ng/g
[1]; liver, 5 h, average ±SD, read-out: Liver concentration
  concentration at 5 h: 18.7 ± 3 ng/g
[1]; liver, 7 h, average ±SD, read-out: Liver concentration
  concentration at 7 h: 20.7 ± 3 ng/g
[1]; muscle, average ±SD, read-out: Muscle concentration
  concentration at 0.5 h: 16.7 ± 15 ng/g
[1]; plasma, average ±SD, read-out: Plasma concentration
  concentration at 0.5 h: 6.3 ± 1.1 ng/mL
[1]; plasma, 2 h, average ±SD, read-out: Plasma concentration
  concentration at 2 h: 3.7 ± 0.9 ng/mL
[1]; plasma, 3 h, average ±SD, read-out: Plasma concentration
  concentration at 3 h: 3.1 ± 1.1 ng/mL
[1]; plasma, 5 h, average ±SD, read-out: Plasma concentration
  concentration at 5 h: 1.5 ± 0.7 ng/mL
[1]; plasma, 7 h, average ±SD, read-out: Plasma concentration
  concentration at 7 h: 2.1 ± 0.5 ng/mL
